We go through six compounds from US7271158B2, “Treatment of rumen acidosis with α-amylase inhibitors” (Pfizer Inc., priority 2000, dated 2007).

Test [1] has as its system bacterial glucosidase activity from bovine rumen fluid cell suspension. The experiment in a line: Rumen fluid glucosidase assay. The class given is biochemical, bovine rumen bacteria. The note with it: rumen fluid glucosidase screen, maltose substrate. As for the experimental part:
Rumen Fluid Glucosidase Assay Protocol This assay is used to determine IC50 values for inhibitors of bacterial glucosidase activity from bovine rumen fluid cell suspension (RFCS) using a colorimetric assay. The assay measures conversion of maltose into glucose. Rumen fluid cells are incubated with maltose in the presence of inhibitors, and the amount of glucose produced is assessed using a red colourimetric endpoint. The higher the level of inhibition the lower the glucose produced and the less red colour produced. The plates are read at 450 nm. Main reaction: • Maltose+glucosidase→glucose Glucose assay • Glucose+ATP→[…] and ADP (Hexokinase and Mg^2+) • […] and NADP→6-phosphogluconate (6-PG) and NADPH • NADPH+phenazine methosulfate ([…] (iodonitrotetrazolium chloride)→[…] is deep red coloured. […] The rumen fluid was collected into pre-warmed vacuum flasks. It was then filtered through a double layer of absorbent gauze (Absorbent gauze BP, GAUZ 4 from Robert Bailey plc, Stockport) to remove hay and feed particles. The liquid was centrifuged at a relative centrifugal force of 650 for 15 minutes to remove food particles and protozoa. The supernatant was decanted into fresh tubes and centrifuged at a relative centrifugal force of 23,300 for 60 minutes. The supernatant and the loose top layer of the pellet were discarded. The pellet was resuspended in PBS at 1:8 of original volume i.e. 50 ml of PBS for the pellet from 400 ml of rumen fluid, and frozen at -20° C. When required for use the cells were thawed by standing the tube in cold water, and then diluted to […] of cells/well (45 μl/ml). Test compounds or controls were dispensed into the 96-well assay plate at 2 μl/well, followed by 50 μl per well of 10 mM maltose and 50 μl/well of rumen fluid cell suspension. The plate was incubated at 37° C. for 1 hour. Sigma glucose detection kit […] was reconstituted by addition of 17 ml of Millipore water and 4 ml of colour reagent to each vial. 100 μl of this solution was added per well and the plate returned to the 37° C. incubator for 45 minutes. The plate was then read at 450 nm. Active compounds cause a reduction in the optical density readings when compared to the no-inhibitor control wells.

Test [2] has as its target rumen fluid supernatant amylases. As to the kind of experiment: Rumen bacterial amylase assay, protocol 1 (Sigma amylase kit 577). The format is biochemical, rumen bacteria, Hereford×Friesian calves. The note with it: for IC50: rumen fluid amylase screen using Sigma kit 577. An excerpt: Rumen Bacterial Amylase Assay—Protocol 1
The enzymatic reactions involved in the assay are as follows:
5 ET-G7PNP→(α-amylase)→2 ET-G5+2 G2PNP+2 ET-G4+2 G3PNP+ET-G3+G4-PNP2 G2PNP+2 G3 PNP→(α-glucosidase)→4 PNP +10 glucose
α-Amylase hydrolyses 4,6-ethylidene-G7-PNP (ET-G7 PNP) to G2, G3 and G4 PNP fragments. α-Glucosidase (α-1,4-glucan glucohydrolase EC 3.2.1.3) hydrolyses G2PNP and G3PNP to yield p-nitrophenol and glucose. Five moles of substrate (ET-G7PNP) is hydrolysed to yield 4 moles of p-nitrophenol p-Nitrophenol absorbs light as 405 nm, and following a two minute lag period the rate of increase in absorbance at 405 nm is directly proportional to α-amylase activity in the well.
Rumen fluid was collected from 4-month-old Hereford×Friesian calves (125–135 kg, supplied by Cwmnant Calves Ltd. Cwmnant. Tregaron. Ceredigion) fed on diet GH 313. The rumen fluid was collected from slaughtered calves into pre-warmed vacuum flasks, as soon as possible after euthanasia. It was then filtered through a double layer of absorbent gauze (Absorbent gauze BP, GAUZ 4 from Robert Bailey plc, Stockport) to remove hay and feed particles. The liquid was centrifuged at a relative centrifugal force of 23,300 for 60 minutes, and the supernatant decanted, avoiding contamination from the loose top layer of the pellet by careful pouring. The supernatant was then aliquoted into 50 ml plastic tubes and frozen at […]. When required for use in an assay the rumen fluid supernatant was thawed by standing the tubes in cold water. Test compounds or controls were dispensed into the 96-well assay plate at 4 μl/well. 100 μl per well of Sigma amylase reagent 577 (made up to half the volume described in the instructions (i.e. 10 ml for a 577-20 vial)) was then added to each well, followed by 100 μl per well of rumen fluid supernatant. A T=0 reading at 405 nm was taken at this stage using an Anthos plate reader. The plate was then incubated at room temperature or 37° C. until an optical density window of approximately 1.000U was seen (typically one hour at 37° C. or three hours at room temperature). A second reading was taken at 405 nm, and the first reading subtracted from it. Active compounds cause a reduction in the optical density readings when compared to the control without the agent being tested.

Test [3] shares this target. The experiment in a line: Rumen bacterial amylase assay, protocol 2 (amylose azure). The note with it: read-out: Average IC50, rumen fluid amylase screen.
Test [4] concerns rumen fluid fermentation (RUSITEC chronic acidosis model). As to the kind of experiment: RUSITEC rumen simulation, chronic acidosis model: Example 8 and acarbose. The format is cell-based, cow. Conditions: for proportional increase in butyrate production: treatment period vs control period (no treatment: 1%); for change in total VFA production: vs preceding control period (no treatment: −11%). As for the experimental part: RUSITEC Result using Example 8 and Acarbose
Daily maintenance procedures as previously described for Acarbose.
Rumen fluid donor cow—Fed GH313Pellets plus barley straw.
Daily Feed—30 g GH313 pellets plus 2.5 g chopped barley straw.
Acarbose: 1 tablet added to each bag to give 100 mg/vessel/d
Example 8: Eight×57 mg pre-weighed samples stored in fridge in […]. On the day before the feed bags were to be placed in RUSITEC, a 57 mg sample was dissolved in 2.28 ml buffer (25 mg/ml). 0.21 ml of this solution was added to 1.9 ml buffer to give a 2.5 mg/ml solution. 1 ml of each solution was added to a prepared feed bag to give 25 and 2.5 mg/vessel/d. and dried overnight at room temperature.

The structures appear in SMILES notation.

Turning to `C[C@H]1O[C@H](O[C@@H]2[C@H](O)[C@@H](O)[C@@H](O[C@@H]3[C@H](O)[C@@H](O)[C@@H](O[C@@H]4[C@H](O)[C@H](O)[C@@H](O[C@H]5O[C@H](CO)[C@H](O)[C@H](O)[C@H]5O)O[C@@H]4CO)O[C@@H]3CO)O[C@H]2CO)[C@@H](O)[C@@H](O)[C@@H]1N[C@@H]1C=C(CO)[C@@H](O)[C@@H](O)[C@@H]1O` (stereo in doubt) [Trestatin B], the IC50 (in general, the concentration at which inhibition is half-maximal) in test [1] came out at 4.1 µM; in test [2], 2.89 µM.
In the case of `C[C@H]1O[C@H](O[C@@H]2[C@H](O)[C@H](O)[C@@H](O[C@@H]3[C@H](O)[C@@H](O)[C@@H](O[C@@H]4[C@H](O)[C@H](O)[C@@H](O[C@H]5O[C@@H](CO)[C@H](O)[C@H](O)[C@H]5O)O[C@@H]4CO)O[C@@H]3CO)O[C@H]2CO)[C@H](O)[C@@H](O)[C@@H]1N[C@H]1C=C(CO)[C@@H](O[C@H]2O[C@H](CO)[C@H](O[C@H]3O[C@H](C)[C@@H](N[C@H]4C=C(CO)[C@@H](O)[C@H](O)[C@H]4O)[C@H](O)[C@H]3O)[C@H](O)[C@H]2O)[C@H](O)[C@H]1O` (stereo in doubt) [Trestatin A], the IC50 in test [1] stood at 33.6 µM; in test [3] it was 0.79 µM; in test [2] it was 0.17 µM.
As for `CC1OC(OC2C(CO)OC(OC3C(CO)=CC(NC4C(C)OC(OC5C(CO)OC(OC6C(CO)OC(OC7C(CO)OC(OC8C(CO)OC(O)C(O)C8O)C(O)C7O)C(O)C6O)C(O)C5O)C(O)C4O)C(O)C3O)C(O)C2O)C(O)C(O)C1NC1C=C(CO)C(O)C(O)C1O` (centres unmarked) [Example 8], the IC50 in test [1] amounted to 13.1 µM; in test [3], 9.45 µM; in test [2], 0.44 µM. In addition, the “increase in mean daily pH” value in test [4] (0.02 mM) was 0.3 units. Further, the “proportional increase in butyrate production” value is 18% in test [4] (2.5 mg per vessel per day) and 20% in test [4] (25 mg per vessel per day). In addition, the “change in total VFA production” value in test [4] (2.5 mg per vessel per day) is recorded as −1%; in test [4] (25 mg per vessel per day) it was −8%.
Regarding `CC1OC(OC2C(CO)OC(OC3C(CO)=CC(NC4C(C)OC(OC5C(CO)OC(OC6C(CO)OC(OC7C(CO)OC(O)C(O)C7O)C(O)C6O)C(O)C5O)C(O)C4O)C(O)C3O)C(O)C2O)C(O)C(O)C1NC1C=C(CO)C(O)C(O)C1O` (centres unmarked) [Example V-1532], the IC50 in test [1] stood at 65.5 µM; in test [3], 2.07 µM; in test [2], 0.57 µM.
`CC1OC(OC2C(CO)OC(OC3C(CO)OC(OC4C(CO)OC(OC5C(CO)OC(O)C(O)C5O)C(O)C4O)C(O)C3O)C(O)C2O)C(O)C(O)C1NC1C=C(CO)C(O)C(O)C1O` (centres unmarked) [Example 7]: inhibition in test [1] was half-maximal at 6.38 µM (IC50). The “effect in the amylase screen” value in test [2] is “inhibiting effect”.
As for `C[C@H]1O[C@H](O[C@H]2[C@H](O)[C@@H](O)[C@@H](O[C@H]3[C@H](O)[C@@H](O)[C@@H](O[C@H]4[C@H](O)[C@@H](O)[C@@H](O[C@H]5O[C@H](CO)[C@@H](O)[C@H](O)[C@H]5O)O[C@@H]4CO)O[C@@H]3CO)O[C@@H]2CO)[C@H](O)[C@@H](O)[C@@H]1N[C@H]1C=C(CO)[C@@H](O[C@H]2O[C@H](CO)[C@@H](O[C@H]3O[C@H](C)[C@@H](NC4C=C(CO)[C@@H](O[C@H]5O[C@H](CO)[C@@H](O[C@H]6O[C@H](C)[C@@H](NC7C=C(CO)[C@@H](O)[C@H](O)[C@H]7O)[C@H](O)[C@H]6O)[C@H](O)[C@H]5O)[C@H](O)[C@H]4O)[C@H](O)[C@H]3O)[C@H](O)[C@H]2O)[C@H](O)[C@H]1O` (some centres unmarked) [Trestatin C], the IC50 in test [1] came out at 148 µM; in test [2] it was 0.09 µM.
